Residues, ends and D or L forms follow the SMILES beside them. *: point of attachment. Boc = CC(C)(C)OC(=O)*

One may read the melting point as the temperature, or range, at which the solid turns liquid.

Regarding `Cc1cccc(-c2nc3ccc(OCCCN(C)C)cc3n2Cc2ccccc2C(F)(F)F)c1`, the melting point turned out to be 74 °C.

Regarding `CCCCOc1coc(CO)cc1=O`, the melting point was 68 to 73 °C.

As to `CCOC(=O)c1c(-c2ccc(OC)cc2)n2c3c(cccc13)OC(CCN1CCN(c3cc(C)ccn3)CC1)C2` (stereo not drawn), the melting point lay within 149 to 150 °C.

The compound `CCOC(=O)CCNC(=O)N(CCCO)c1ccc(-c2ccc(C#N)cc2)cc1` registered a melting point of 102 to 104 °C.

In turn, `CC1=Nc2c(nc(N)[nH]c2=O)NC1C` (stereo not drawn) returned a melting point greater than 300 °C.

Consider `COc1cc(C)c(C(C)O)cc1NC(=O)N1CCN(c2cc(C)cc(C)c2)CC1` (stereo not drawn), for which the melting point lay within 140 to 142 °C.

Regarding `COc1ccc(C(=O)CBr)cc1C12CC3CC(CC(C3)C1)C2`, the melting point is 140 to 141 °C.

The compound `C=CCc1c(C)cc(C)cc1O` had a melting point of 51 °C.

`COc1c(CS(C)(=O)=O)cnc2ccccc12` had a melting point of 151 to 154 °C.

In the case of `CCCc1nc2c(N)nc(C)c(C)c2n1CC1(O)CCC1`, the melting point was in the range of 180 to 181 °C.

Compound `COc1ccc2[nH]c(C(N)=O)c(OC(C)C)c2c1` registered a melting point of 138 to 140 °C.

`CCSC1(SCC)C(O)CC2C3CCC4=CC(=O)C=CC4(C)C3(F)C(OC(C)=O)CC21C` (stereo not drawn) returned a melting point of 181 to 182 °C.

For the compound `CC(=O)NC(=O)OC[C@]1(C)S[C@@H]2[C@H](NC(=O)COc3ccccc3)C(=O)N2[C@H]1C(=O)OCc1ccc([N+](=O)[O-])cc1`, the melting point is 83 to 85 °C.

For `Oc1ccc(C=C(Cl)Cl)cc1`, the melting point lay in the range of 90 to 91 °C.

The compound `CCOC(=O)c1ncn2c1CN=C(NCC(OC)OC)c1ccccc1-2` came in with a melting point of 121 to 122 °C.

`CC(=O)Oc1ccc(CCc2ccc(OC(C)=O)cc2)cc1` showed a melting point of 115 to 116 °C.

The compound `CCOC(=O)CCc1ccnc(O)c1` displayed a melting point of 73 to 76.5 °C.

`COC(=O)NC=Cc1ccc(O)cc1` had a melting point of 169 to 170 °C.

With `COCCc1nc2c(N)nc3c(c2n1CCOCCN(C)C(=O)Nc1ccccc1)CCCC3`, the melting point was in the range of 168 to 170 °C.

In turn, `CCn1c(=O)n(O)c(=O)c2cc(F)c(N3CCN(C)CC3)cc21` had a melting point of 132 to 134 °C.

`Nc1ccc(Sc2c(NCC3CC3)cc(C(=O)O)cc2S(N)(=O)=O)cc1` showed a melting point of 221 to 223 °C.

`Sc1nc2cc3ccccc3cc2[nH]1` registered a melting point of 303 to 305 °C.

On to `Cn1cc(C2=C(c3cn(C)c4ccccc34)C(=O)NC2=O)c2ccccc21`, for which the melting point is greater than 300 °C.

In the case of `CCN1C=C(C(=O)OC)C(=O)CC1c1ccc(N(C)C)cc1` (stereo not drawn), the melting point was in the range of 85 to 87 °C.

For the compound `OCc1ccc(-c2ccccc2)cn1`, the melting point is 86 to 87 °C.

Consider `CNC(=O)N1CC(Oc2ccc(F)cc2Cl)C1`, for which the melting point lay within 139 to 141 °C.

`COC(=O)C1=C(C)NC(C)=C(C(=O)OCCCl)C1c1cccc([N+](=O)[O-])c1` (stereo not drawn) registered a melting point of 129 to 131 °C.

`CS(=O)(=O)c1ccc(-c2cc(CO)sc2-c2ccc(F)cc2)cc1` gave a melting point of 140 to 142 °C.

In the case of `O=C(Nc1nc(-c2ccco2)c(C(=O)c2cc[nH]c2)s1)c1ccncc1`, the melting point was 259 to 260 °C.

In turn, `CC(=O)NCC1CC(c2ccc(N3CCS(=O)CC3)c(F)c2)=NO1` (stereo not drawn) yielded a melting point of 204 to 205 °C.

Compound `CC(=NN(C)c1ccc(C(F)(F)F)cc1)C(=O)NCc1ccc(Cl)cc1` displayed a melting point of 112 to 113 °C.

With `c1c2c(nc3c1CCCCC3)CCCCC2`, the melting point worked out at 179 °C.

For the compound `CC(C)Cn1cnc2c(N)nc3cccc(-c4ccccc4)c3c21`, the melting point was 263 to 265 °C.

`Brc1ccc(CN2CCN(c3ccncc3)CC2)cc1` gave a melting point of 140 to 141 °C.

For `Cc1nc2oc3c(c2c(=O)[nH]1)CCCC3`, the melting point is greater than 300 °C.

On to `O=C1CCC(N2Cc3cc(CNC(=O)N4CCOCC4)ccc3C2=O)C(=O)N1` (stereo not drawn), for which the melting point was in the range of 208 to 210 °C.

As to `CCc1nc(COc2ccc([N+](=O)[O-])cc2)cs1`, the melting point was 79 to 80 °C.

Regarding `CC12CCC(C(=O)N(CCCCN3CCN(c4ncccn4)CC3)C1=O)C2(C)C` (stereo not drawn), the melting point lay in the range of 92 to 94 °C.

For the compound `CCc1ccc(-c2c3ccccc3c(-c3ccc(CC)cc3)c3cc(Cl)ccc23)cc1`, the melting point lay within 214 to 216 °C.

`CNC(=O)Oc1ccc(CN2CCN(c3ccc(C(C)=O)cc3)CC2)cc1OC` had a melting point of 120 to 123 °C.

For the compound `COc1ccc(N(c2ccc(OC)cc2)c2ccc(-c3ccc(N(c4ccc(OC)cc4)c4ccc5ccc6cccc7ccc4c5c67)cc3)cc2)cc1`, the melting point was in the range of 211 to 213 °C.

For `CCCCCCCCCCCCCCN=C=S`, the melting point was in the range of 77 to 79 °C.

In turn, `CCCCOc1c(CNC(=O)OC(C)(C)C)n(CC(C)C)c(=O)c2ccc(/C=C/C(=O)O)cc12` gave a melting point of 207 to 209 °C.

As to `CCOC(=O)C(NC(C)=O)(C(=O)OCC)C1=Nc2ccc(Cl)cc2C(c2ccccc2F)=NC1`, the melting point was in the range of 150 to 180 °C.

For the compound `OC1CSC(Oc2cnccc2C(F)(F)F)C(O)C1O` (stereo not drawn), the melting point came out at 191 °C.

In the case of `Cn1ncc2c1-c1c(Oc3ccc4c(c3)OCO4)sc(C(=O)c3cccnc3)c1CC2`, the melting point lay in the range of 180 to 182 °C.

As for `Nc1ccc(Oc2ccc(C3(c4ccc(Oc5ccc(N)c(O)c5)cc4)C4CC5CC(C4)CC3C5)cc2)cc1O`, the melting point is greater than 160 °C.

`O[C@@H]1c2ccccc2CN2CCC[C@@H]12` (relative stereo) returned a melting point of 131 to 133 °C.

For `FC(F)(F)c1ccc2nnc(-c3cccc(Cl)c3Cl)n2c1`, the melting point was in the range of 100 to 101 °C.

In turn, `Cc1nc2c(Cl)cc(F)c([N+](=O)[O-])c2s1` displayed a melting point of 130 to 132 °C.

`COC(=O)c1cccc(-c2nc(COc3ccc(COc4nn(-c5ccccc5)cc4C=O)cc3)c(C)o2)c1`: the melting point lay in the range of 161 to 162 °C.

As for `COc1cc(C(=O)N2CCN(C(=O)C3=Cc4cc(C)c(C)cc4OCC3)CC2)cc(OC)c1OC`, the melting point was 177 to 178 °C.

`CC(C)(C)OC(=O)C(CN(Cc1ccccc1)Cc1ccccc1)CC1(C(=O)NC(Cc2ccc(OC(C)(C)C)cc2)C(=O)OC(C)(C)C)CCCC1` (stereo not drawn) displayed a melting point of 82 to 87 °C.

On to `CONC(=O)CON1C(=O)c2ccccc2C1=O`, for which the melting point came to 179 °C.

As for `O=C(O)[C@H]1CCCN1C(=O)CCS`, the melting point is 68 to 70 °C.

Turning to `COc1c(F)cc(-c2cncc(OC3SCC(OC(C)=O)C(OC(C)=O)C3OC(C)=O)c2)cc1F` (stereo not drawn), the melting point is 203 °C.

`Cc1ccc(C[C@@H](C(=O)O)[C@@H](O)c2ccc(F)cc2)cc1OC(F)(F)C(F)F` (racemic) registered a melting point of 102 to 103 °C.

Compound `COC(=O)c1cnc2cccc(O)c2c1` gave a melting point of 200 °C.

Compound `COc1c(C)c(C)c(OC)c(N)c1N` registered a melting point of 107 to 110 °C.

Consider `CCOCc1nnc2n1-c1ccc(Cl)cc1C(c1ccccc1)=NC2`, for which the melting point fell in the range of 168 to 170 °C.

`O=C1c2ccccc2C=C(Cl)C(Cl)c2ccccc21` (stereo not drawn) registered a melting point of 123 to 125 °C.

In the case of `CC(NC(=O)C(Cc1ccc(O)cc1)NC(=O)OC(C)(C)C)C(=O)NCC(=O)O` (stereo not drawn) (Boc-Tyr-Ala-Gly-OH; configuration not given here), the melting point lay in the range of 194 to 197 °C.

`COc1ccc(-c2ccncc2)cc1-c1ccc(F)c(Cl)c1` displayed a melting point of 115 °C.

Consider `CC(=O)Nc1cc(C(F)(F)F)ccc1S(=O)CC#N` (stereo not drawn), for which the melting point lay in the range of 149 to 151 °C.

For `CCS(=O)(=O)c1nsc(NC(=O)NC)c1C(N)=O`, the melting point fell in the range of 219 to 220 °C.

`O=C(Nc1nccs1)c1cn(CC2CCCC2)c2cc(Cl)ccc12` had a melting point of 117 to 119 °C.

For `COC(=O)c1ccc(C(=O)c2ccc3c(c2)C2(C)C4(C)CCC(C4)C2(C)O3)cc1` (stereo not drawn), the melting point turned out to be 150 °C.

Take `Fc1cc(-n2cnnn2)ccc1-c1ccc2oc(C3CCNCC3)nc2c1`: the melting point was 148 to 151 °C.

`COc1ccc(C2=NN(CCCCOc3ccc(C4=NNC(=O)C4(C)C)c(F)c3F)C(=O)C2(C)C)c2cc(C(F)(F)F)sc12` yielded a melting point of 167 to 168 °C.

With `CC(=O)SCC(C(=O)Nc1oc(CCC(=O)O)c2ccccc12)C(F)(F)F` (stereo not drawn), the melting point lay in the range of 139 to 140 °C.

The compound `Cc1c(C2=CCC(c3ccccc3)(N(C)C)CC2)[nH]c2ccccc12` (stereo not drawn) came in with a melting point of 168 to 180 °C.

`Cc1c(NC(=O)c2ccc(OC[C@@H]3CCCO3)cc2F)ccc2cc(CNCC(C)(C)O)cnc12` displayed a melting point of 167 to 168 °C.

`C[C@H](Cc1c[nH]c2c(OCc3ccccc3)cccc12)NC(=O)OC(C)(C)C` came in with a melting point of 94 to 95 °C.

As to `CCCCOCCOc1ccc(-c2ccc3c(c2)C=C(C(=O)Nc2ccc(CSc4nncs4)cc2)CCN3CC(C)C)cc1`, the melting point lay within 77 to 79 °C.

`Cc1ccccc1Nc1nc(N(C)c2ccccc2)c2cccc(O)c2n1` yielded a melting point of 174 to 175 °C.

As to `CSC(N)=C(CCN1CCC(c2noc3cc(F)ccc23)CC1)[N+](=O)[O-]`, the melting point lay in the range of 150 to 154 °C.

`Cc1nnc2ccc(-c3cccc(N4CCCC4=O)c3)nn12`: the melting point lay in the range of 235 to 237 °C.

On to `O=Cc1cccc(OCCc2coc(-c3ccccc3)n2)c1`, for which the melting point lay within 51 to 53 °C.

Consider `CCOc1cc(C(CC#N)N2C(=O)c3cccc(N)c3C2=O)ccc1OC` (stereo not drawn), for which the melting point lay in the range of 171 to 172 °C.

With `CC(C)NC1=NS(=O)(=O)c2cc(C(F)(F)F)ccc2N1`, the melting point was 287 to 289 °C.

As for `COc1cc(-n2c(=O)cc(C(F)(F)F)[nH]c2=O)ccc1C#N`, the melting point is greater than 230 °C.

`Cc1cc(-n2ccnc2)c2cccc(OCc3c(Cl)ccc(S(=O)(=O)N4CC[C@H]4C(=O)O)c3Cl)c2n1` had a melting point of 160 °C.

Consider `O=c1[nH]c(=O)n(C2CC(Cl)C(CBr)O2)cc1C=CBr` (stereo not drawn), for which the melting point was 149 °C.

In turn, `CCCCc1ncc(C=C(Cc2cccs2)C(=O)O)n1Cc1cccc(C(=O)O)c1` had a melting point of 243 to 244 °C.

`CC(C)N(C[C@H](O)[C@H](Cc1ccccc1)NC(=O)[C@H](CC(N)=O)NCc1ccccn1)NC(=O)OC(C)(C)C` had a melting point of 101 to 108 °C.

Take `CC1(C)OC[C@@H](COn2cnc3c(Cl)nc(N)nc32)O1`: the melting point is 118 to 120 °C.

As for `Cc1cccc(Cl)c1Nc1ccccc1CC(=O)O`, the melting point lay in the range of 124 to 125 °C.

In turn, `CCc1ncnc2cc(OC)c(OCC3CO3)cc12` (stereo not drawn) showed a melting point of 120 to 122 °C.

Values taken from a melting point compilation (Tetko et al.; mined from patent text by program, amines drawn as free bases though some values may be those of a salt).
